In US20060014949A1 (SuperGen Inc., priority 2004, published 2006):
≈ marks a conversion by molar mass, not a printed value. Values belong to the molecule of their own block, whether it stands above or below them.

Assays:
Format in all cases: physicochemical
[1] = Moisture sorption/desorption analysis (VTI SGA-100); settings: for solid form after moisture sorption/desorption analysis: after sorption/desorption cycle
Method: Moisture sorption/desorption data were collected on a VTI SGA-100 Vapor Sorption Analyzer. Sorption and desorption data were collected over a range of 5 to 95% relative humidity (RH) at 10% RH increments under a nitrogen purge. Sodium chloride (NaCl) and polyvinylpyrrolidone (PVP) were used as the calibration standards. Equilibrium criteria used for analysis were less than 0.0100% weight change in 5 minutes, with a maximum equilibration time of 180 minutes if the weight criterion was not met. Data collected were not corrected for the initial moisture content of the samples.

[2] = Relative humidity stress experiments, XRPD after storage over saturated salt solutions
Method: In relative humidity (RH) stress analysis, open vials containing solid samples were placed inside chambers containing saturated salt solutions along with a small amount of the undissolved salt. The chambers were sealed and allowed to stand at ambient temperature for several days. Samples were analyzed by X-ray powder diffraction (XRPD) immediately after removing the sample from the RH chamber. The RH values these salt solutions were obtained from an ASTM standard.

[3] = Thermogravimetric analysis (TGA)
Method: Thermogravimetric analysis (TGA) was carried out on TA Instruments TGA 2050 or 2950. The calibration standards were nickel and Alumel™. Samples were placed on a clean, aluminum sample pan, accurately weighed, and inserted into the TGA furnace. The samples were heated in nitrogen at a rate of 10° C./min, from 35° C. to a final temperature of 250° C.

[4] = Approximate solubility by solvent aliquot addition, visual inspection; settings: thermodynamic from solid
Method: Solvents were either reagent or HPLC grade. The aliquots were typically either 100 μL or 1 mL. Between additions, the mixture was typically shaken or sonicated. Whether the solids dissolved was judged by visual inspection. Solubilities were estimated from these experiments based on the total solvent used to provide complete dissolution.
Solubilities were estimated from these experiments based on the total solvent used to give a solution. Duplicate runs were averaged.

[5] = Solid-state stress (compression, heating, grinding, storage) with XRPD form check
Method: X-ray powder diffraction analyses were carried out on a Shimadzu XRD-6000 X-ray powder diffractometer using Cu Kα radiation having a wavelength of 1.5406 Å. The instrument is equipped with a fine-focus X-ray tube. The tube power was set by setting potential difference at 40 kV, and current 40 mA. The divergence and scattering slits were set at 1° and the receiving slit was set at 0.15 mm. Diffracted radiation was detected by a NaI scintillation detector. A theta-two theta continuous scan at 3°/min (0.4 sec/0.02° step) from 2.5 to 40 °2θ was performed. A silicon standard was analyzed each day to check the instrument alignment. Each sample was analyzed in a quartz sample holder. A variable temperature (VT-XRPD) experiment was performed on one form. The sample was prepared for analysis by pressing it into a variable temperature holder.

total weight gain from 5 to 95% RH ([1]; 5 to 95% RH): ~13%
solid form after moisture sorption/desorption analysis ([1]; listed as form C): converts to form B
weight (water) lost upon equilibration to 5% RH [1]: 1.4%
weight (water) lost upon equilibration to 5% RH ([1]; listed as form C): approximately 1.4%
XRPD result ([2]; Magnesium Chloride, 33.1 % RH @ 20° C., 28 days): remained unchanged
XRPD result ([2]; Potassium Acetate, 23.1 % RH @ 20° C., 25 days): converted from form C to form B
XRPD result ([2]; Potassium Chloride, 85.1 % RH @ 20° C., 28 days): converted from form C to form B
TGA Results: percent weight change from 25 to 150° C. ([3]; listed as C): 1.2%
TGA Results: percent weight change from 25 to 150° C. ([3]; listed as form C): approximately 1.2%
TGA weight loss at about 150° C. ([3]; sample prepared by vacuum evaporation of a solution in water (sample no. 1029-65-05)): ~7.2%
TGA weight loss at about 150° C. ([3]; weight equilibrium event at 25° C. omitted from the TGA method): approximately 3.2%
SMILES: Nc1ncn([C@H]2C[C@H](O)[C@@H](CO)O2)c(=O)n1 [Form C]

solubility ([4]; 1,1,1,3,3,3-hexafluoro-2-propanol, organic solvent or mixture, solvent 1,1,1,3,3,3-Hexafluoro-2-propanol): ~18000 µg/mL (≈ 78.9 mM)
solubility ([4]; 1,1,1-trichloroethane, organic solvent or mixture, solvent 1,1,1-Trichloroethane): < 1000 µg/mL
solubility ([4]; 1,4-dioxane, organic solvent or mixture, solvent 1,4-Dioxane): < 2000 µg/mL
solubility ([4]; 2-butanone, organic solvent or mixture, solvent 2-Butanone): < 1000 µg/mL
solubility ([4]; 2-propanol, organic solvent or mixture, solvent 2-Propanol): < 1000 µg/mL
solubility ([4]; acetone, organic solvent or mixture, solvent Acetone): < 1000 µg/mL
solubility ([4]; acetonitrile, organic solvent or mixture, solvent Acetonitrile): < 1000 µg/mL
solubility ([4]; chloroform, organic solvent or mixture, solvent Chloroform): < 1000 µg/mL
solubility ([4]; dichloromethane, organic solvent or mixture, solvent Dichloromethane): < 1000 µg/mL
solubility ([4]; dichloromethane:ethanol (1:1), organic solvent or mixture, solvent Dichloromethane:Ethanol (1:1)): < 1000 µg/mL
solubility ([4]; dichloromethane:methanol (1:1), organic solvent or mixture, solvent Dichloromethane:Methanol (1:1)): > 1000 µg/mL
solubility ([4]; diethylamine, organic solvent or mixture, solvent Diethylamine): < 1000 µg/mL
solubility ([4]; ethyl acetate, organic solvent or mixture, solvent Ethyl Acetate): < 1000 µg/mL
solubility ([4]; ethyl ether, organic solvent or mixture, solvent Ethyl Ether): < 1000 µg/mL
solubility ([4]; hexanes, organic solvent or mixture, solvent Hexanes): < 1000 µg/mL
solubility ([4]; methanol:2,2,2-trifluoroethanol (1:1), organic solvent or mixture, solvent Methanol:2,2,2-Trifluoroethanol (1:1)): > 1000 µg/mL
solubility ([4]; methanol:water (1:1), aqueous with cosolvent or surfactant or cyclodextrin, solvent Methanol:Water (1:1)): 4000 µg/mL (≈ 17.5 mM)
solubility ([4]; methyl sulfide, organic solvent or mixture, solvent Methyl Sulfide): < 1000 µg/mL
solubility ([4]; methyl sulfoxide, organic solvent or mixture, solvent Methyl Sulfoxide): ~37000 µg/mL (≈ 162 mM)
solubility ([4]; nitromethane, organic solvent or mixture, solvent Nitromethane): < 1000 µg/mL
solubility ([4]; tetrahydrofuran, organic solvent or mixture, solvent Tetrahydrofuran): < 1000 µg/mL
solubility ([4]; toluene, organic solvent or mixture, solvent Toluene): < 1000 µg/mL
solubility ([4]; water, solvent Water): ~8000 µg/mL (≈ 35.1 mM)
XRPD Pattern ([5]; no solvent, Hydraulic Press 10,000 lbs ~3 min): A + 1 peak
SMILES: Nc1ncn([C@H]2C[C@H](O)[C@@H](CO)O2)c(=O)n1 [Decitabine, 5-aza-2′-deoxycytidine]

water regained at 95% RH ([1]; 95% RH): 0.09%
Weight % chg ([1]; Table 5, desorption, RH 4.98 %, 25.07 deg C, 854.2 min): −2.2984%
Weight % chg ([1]; Table 5, desorption, RH 15.05 %, 25.07 deg C, 672.3 min): 0.0005%
Weight % chg ([1]; Table 5, desorption, RH 25.12 %, 25.06 deg C, 665.2 min): 0.0098%
Weight % chg ([1]; Table 5, desorption, RH 35.00 %, 25.07 deg C, 658.2 min): 0.0184%
Weight % chg ([1]; Table 5, desorption, RH 45.01 %, 25.06 deg C, 650.7 min): 0.0274%
Weight % chg ([1]; Table 5, desorption, RH 55.06 %, 25.06 deg C, 643.2 min): 0.0357%
Weight % chg ([1]; Table 5, desorption, RH 65.04 %, 25.07 deg C, 635.7 min): 0.0439%
Weight % chg ([1]; Table 5, desorption, RH 75.10 %, 25.06 deg C, 627.7 min): 0.0553%
Weight % chg ([1]; Table 5, desorption, RH 85.33 %, 25.07 deg C, 619.7 min): 0.0688%
Weight % chg ([1]; Table 5, sorption, RH 4.98 %, 25.06 deg C, 185.1 min): −2.3894%
Weight % chg ([1]; Table 5, sorption, RH 15.24 %, 25.07 deg C, 193.2 min): −2.4118%
Weight % chg ([1]; Table 5, sorption, RH 24.84 %, 25.07 deg C, 242.2 min): −2.2223%
Weight % chg ([1]; Table 5, sorption, RH 35.00 %, 25.06 deg C, 384.9 min): −1.2517%
Weight % chg ([1]; Table 5, sorption, RH 44.84 %, 25.06 deg C, 499.6 min): −0.5520%
Weight % chg ([1]; Table 5, sorption, RH 54.81 %, 25.07 deg C, 556.5 min): −0.1535%
Weight % chg ([1]; Table 5, sorption, RH 65.01 %, 25.07 deg C, 579.8 min): −0.0371%
Weight % chg ([1]; Table 5, sorption, RH 74.89 %, 25.08 deg C, 592.3 min): 0.0119%
Weight % chg ([1]; Table 5, sorption, RH 84.81 %, 25.08 deg C, 601.5 min): 0.0426%
Weight % chg ([1]; Table 5, sorption, RH 94.59 %, 25.09 deg C, 613.0 min): 0.0851%
Weight % chg ([1]; Table 5, start, RH 2.15 %, 25.08 deg C, 0.0 min): 0.0000%
Weight % chg ([1]; Table 7, desorption, RH 4.96 %, 25.03 deg C, 887.7 min): −1.6786%
Weight % chg ([1]; Table 7, desorption, RH 14.79 %, 25.03 deg C, 771.0 min): 6.1361%
Weight % chg ([1]; Table 7, desorption, RH 24.87 %, 25.03 deg C, 758.6 min): 6.2283%
Weight % chg ([1]; Table 7, desorption, RH 35.04 %, 25.03 deg C, 749.3 min): 6.3408%
Weight % chg ([1]; Table 7, desorption, RH 45.13 %, 25.02 deg C, 739.6 min): 6.4585%
Weight % chg ([1]; Table 7, desorption, RH 54.99 %, 25.02 deg C, 725.7 min): 6.6172%
Weight % chg ([1]; Table 7, desorption, RH 65.12 %, 25.03 deg C, 711.7 min): 6.8321%
Weight % chg ([1]; Table 7, desorption, RH 75.27 %, 25.03 deg C, 697.2 min): 7.1750%
Weight % chg ([1]; Table 7, desorption, RH 85.18 %, 25.03 deg C, 673.5 min): 7.9222%
Weight % chg ([1]; Table 7, sorption, RH 4.95 %, 25.07 deg C, 47.5 min): −1.4176%
Weight % chg ([1]; Table 7, sorption, RH 14.98 %, 25.08 deg C, 60.6 min): −1.3613%
Weight % chg ([1]; Table 7, sorption, RH 24.93 %, 25.08 deg C, 73.7 min): −1.2692%
Weight % chg ([1]; Table 7, sorption, RH 35.04 %, 25.08 deg C, 94.3 min): −0.8649%
Weight % chg ([1]; Table 7, sorption, RH 44.87 %, 25.08 deg C, 116.7 min): −0.4555%
Weight % chg ([1]; Table 7, sorption, RH 55.02 %, 25.05 deg C, 298.7 min): 3.5457%
Weight % chg ([1]; Table 7, sorption, RH 65.01 %, 25.05 deg C, 385.9 min): 6.2129%
Weight % chg ([1]; Table 7, sorption, RH 74.94 %, 25.05 deg C, 413.2 min): 6.6223%
Weight % chg ([1]; Table 7, sorption, RH 85.01 %, 25.05 deg C, 456.7 min): 7.2160%
Weight % chg ([1]; Table 7, sorption, RH 95.15 %, 25.03 deg C, 640.2 min): 11.2538%
Weight % chg ([1]; Table 7, start, RH 2.94 %, 25.07 deg C, 0.0 min): 0.0000%
solid form after moisture sorption/desorption analysis [1]: a mixture of forms B and form C
weight (water) lost upon equilibration to 5% RH [1]: ~2.4%
RH at which the moisture lost at 5% RH is regained ([1]; sorption cycle): about 44 % RH
TGA Results: percent weight change from 25 to 150° C. ([3]; listed as B): 7.212%
TGA Results: percent weight change from 25 to 150° C. ([3]; listed as form B): 7.2%
XRPD Pattern ([5]; Post TGA @ 150° C. 10 min (dry nitrogen)): converts to form A
form change in VT-XRPD experiment ([5]; heated in the presence of air): converted to a mixture of forms B and C
form change on storage ([5]; vacuum oven at room temperature for 6 days): converts to form C
SMILES: Nc1ncn([C@H]2C[C@H](O)[C@@H](CO)O2)c(=O)n1.O [Form B]
